From US20120040965A1, “SUBSTITUTED AZEPINO[4,3-B]INDOLES, PHARMACOLOGICAL COMPOSITION AND A METHOD FOR THE PRODUCTION AND USE THEREOF” (priority 2006, published 2012)

Columns and labels:
[1] = target: T1, histamine H1 receptor (Homo sapiens, UniProt P35367); assay: Histamine-induced calcium streams in SK-N-SH cells, Phase 1 (H1 receptor antagonism); format: cell-based; conditions: Phase 1: compounds prevent calcium ions entry in cells by antagonistic action on H1-receptors, histamine 10 μM, read-out: pIC50 Phase 1 (converted)
T1 construct: host or cells: SK-N-SH
Method: (§1) Tests of biological activity of compounds of general formula 1. In order to determine a physiological activity of the proposed compounds a focused library was compiled to include compounds of general formula 1, some of which are shown in Table 2 below. The compounds were tested as potential histamine H1 receptor antagonists, and their ability to regulate cytosolic calcium ions concentration in cells by blocking calcium channels regulated by intracellular calcium repositories was determined. Cells SK-N-SH (ATCC, USA) were grown on DMEM medium (Invitrogen, USA), containing 10% fetal calf serum (FBS) and antibiotic penicillin-streptomycin in CO2 incubator (5% CO2) until cell density was 1*10^5 cells/cm^2. The cells were removed from flask surface by reagent TrypLE Express (Invitrogen, USA), collected by centrifugation and resuspended in medium Hybridoma Serum Free Medium (HSFM, Sigma, USA) in concentration of 4*10^6 cells/ml. For measurement of cytosolic calcium concentration the cells were loaded with calcium sensitive fluorescent dye Fura 2 AM (Invitrogen, USA) by means of hatching of cells with a dye in suspension for 30 minutes at room temperature. The cells were collected by centrifugation, resuspended in HSFM, incubated in suspension for 15 minutes, collected by centrifugation, washed twice in HSFM and resuspended in HSFM in concentration of 4*10^6 cells/ml.
(§2) Registration of calcium streams in cells was carried out using spectrofluorometer Shimadzu-RF5301PC. The cells were diluted with buffer (NaCl 0.145 M, KCl 0.0054 M, NaH2PO4 0.001 M, MgSO4 0.0008 M, CaCl2 0.0018 M, HEPES 0.03 M, D-glucose 0.0112 M pH 7.4) till concentration 1*10^5 cells/ml in measuring cuvette provided with magnetic stirrer, and fluorescence was registered using a regime of two-wave excitement (340 and 380 nm, respectively) at wavelength of emission 510 nm (F1 and F2, respectively). In 20 seconds after beginning of registration 10 mM of histamine water solution was added (final concentration is 10 μM). In another 30 seconds, after achievement of calcium cytosolic concentration peak a solution of tested compound in DMSO was added and registration was continued for 3 minutes. Serial dilutions of the compounds in dimethylsulfoxide (DMSO) were prepared for determination of their biological activity, and the effect of the concentration of compound on the calcium streams induced by histamine was determined.
Transformation of fluorescence signal into calcium concentration was carried out by means of equation imbedded in program Super Ion Probe (Shimadzu), for which maximum of free calcium concentration by addition of digitonin (Sigma, USA) up to concentration of 0.1 mg/ml and zero calcium concentration by addition of ethylenediamine-tetraacetate (EDTA) up to concentration of 10 mM were determined. Kinetic curves of cytosolic calcium decrease after addition of tested compound compared to concentration after addition of histamine were calculated using single-phase exponential model by means of Prism 4 (GraphPad Software, Inc.) program: […]
In Table 2 below the values corresponding to the reciprocal logarithm of EC50(−LogEC50=pEC50) for some of tested compounds of general formula 1 used as measures of these compounds activity are presented.

[2] = system: cytosolic calcium ions concentration in cells; assay: Histamine-induced calcium streams in SK-N-SH cells, Phase 2 (acceleration of cytosolic calcium removal); format: cell-based; conditions: Homo sapiens, Phase 2: acceleration of intraplasmatic calcium removal, histamine 10 μM, read-out: pIC50 Phase 2 (converted)
Method: as §1, §2
Transformation of fluorescence signal into calcium concentration was carried out by means of equation imbedded in program Super Ion Probe (Shimadzu), for which maximum of free calcium concentration by addition of digitonin (Sigma, USA) up to concentration of 0.1 mg/ml and zero calcium concentration by addition of ethylenediamine-tetraacetate (EDTA) up to concentration of 10 mM were determined. Kinetic curves of cytosolic calcium decrease after addition of tested compound compared to concentration after addition of histamine were calculated using single-phase exponential model by means of Prism 4 (GraphPad Software, Inc.) program:
[Ca]=[Ca]max*exp(−K*T)+[Ca]min,
wherein T means time after addition of tested compound, [Ca]max and [Ca]min correspond to maximum (peak meaning after addition of histamine) and minimum (equilibrium level to which the curve converges after addition of tested compound) concentrations of cytosolic calcium, and K means a kinetic constant of the decrease of cytosolic calcium concentration which is calculated by minimization of the least squares of deviations.
The dependence of calculated constants of calcium decreasing (K) on the concentration of tested compound (C) was drawn up, and using this dependence by means of program Prism 4 the value of EC50 (concentration of tested compound corresponding to half-maximum increase of a kinetic constant of cytozoic calcium concentration decrease) was defined using four parametrical equation. […]

T1 sequence (P35367 whole entry): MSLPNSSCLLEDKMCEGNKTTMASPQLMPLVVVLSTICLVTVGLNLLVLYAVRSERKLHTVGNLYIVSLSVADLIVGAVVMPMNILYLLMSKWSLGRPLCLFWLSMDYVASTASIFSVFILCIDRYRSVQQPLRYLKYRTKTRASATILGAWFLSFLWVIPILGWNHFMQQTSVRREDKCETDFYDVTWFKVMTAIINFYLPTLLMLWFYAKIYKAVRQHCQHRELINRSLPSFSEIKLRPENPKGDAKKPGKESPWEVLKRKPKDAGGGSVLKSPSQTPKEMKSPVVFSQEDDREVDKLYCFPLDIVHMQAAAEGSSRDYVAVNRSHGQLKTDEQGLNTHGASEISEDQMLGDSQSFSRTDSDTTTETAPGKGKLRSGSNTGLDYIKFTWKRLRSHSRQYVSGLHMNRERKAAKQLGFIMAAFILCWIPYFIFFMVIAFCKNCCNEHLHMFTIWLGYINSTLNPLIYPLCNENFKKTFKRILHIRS

| Compound | IC50 [1] [nM] | IC50 [2] [nM] |
| --- | --- | --- |
| Cc1ccc2[nH]c3c(c2c1)CN(C(=O)c1ccccc1)CCC3 [1.1.3.4(1), 2-benzoyl-9-methyl-1,2,3,4,5,6-hexahydroazepino[4,3-b]indole] | > 100000 | > 100000 |
| Cc1ccc2c(c1)[C@@H]1CN(C)CCC[C@H]1N2CCc1ccccn1 (relative stereo) [1.2.5(1), trans-2,9-dimethyl-6-[2-(pyridin-2-yl)ethyl]-1,2,3,4,5,5a,6,10b-octahydroazepino[4,3-b]indole] | 1000 | 2510 |
| Cc1ccc2c(c1)[C@@H]1CN(C)CCC[C@H]1N2Cc1ccccc1 (relative stereo) [1.2.6(1), trans-6-benzyl-2,9-dimethyl-1,2,3,4,5,5a,6,10b-octahydroazepino[4,3-b]indole] | 126 | 631 |
| Cc1ccc2c(c1)[C@@H]1CN(C)CCC[C@H]1N2CCc1ccc(C)nc1 (relative stereo) [1.2.5(2), trans-2,9-dimethyl-6-[2-(6-methylpyridin-3-yl)ethyl]-1,2,3,4,5,5a,6,10b-octahydroazepino[4,3-b]indole] | 251 | 1000 |
| Cc1ccc2c(c1)[C@@H]1CN(C)CCC[C@H]1N2CCc1ccncc1 (relative stereo) [1.2.5(3), trans-2,9-dimethyl-6-[2-(pyridin-4-yl)ethyl]-1,2,3,4,5,5a,6,10b-octahydroazepino[4,3-b]indole] | 158 | 1000 |
| CN1CCC[C@@H]2[C@@H](C1)c1cc(-c3ccncc3)ccc1N2CCc1cccnc1 (relative stereo) [1.2.5(6), trans-2-methyl-6-[2-(pyridin-3-yl)ethyl]-9-(pyridin-4-yl)-1,2,3,4,5,5a,6,10b-octahydroazepino[4,3-b]indole] | 251 | 1000 |
| CN1CCC[C@@H]2[C@@H](C1)c1cc(F)ccc1N2CCc1cccnc1 (relative stereo) [1.2.5(5), trans-2-methyl-6-[2-(pyridin-3-yl)ethyl]-9-fluoro-1,2,3,4,5,5a,6,10b-octahydroazepino[4,3-b]indole] | 126 | 631 |
| Cc1ccc2c(c1)c1c(n2CCc2cccnc2)CCCN(C)C1 [1.1.5(5)] | 501 | 3160 |
| Cc1ccc2c(c1)[C@@H]1CN(C)CCC[C@H]1N2C(=O)c1ccccc1 (relative stereo) [1.2.7(3), trans-6-benzoyl-2,9-dim ethyl-1,2,3,4,5,5a,6,10b-octahydroazepino[4,3-b]indole] | > 100000 | > 100000 |
| Cc1ccc2c(c1)c1c(n2CCc2ccc(C)nc2)CCCN(C)C1 [1.1.5(2), 2,9-dimethyl-6-[2-(6-methylpyridin-3-yl)ethyl]-1,2,3,4,5,6-hexahydroazepino[4,3-b]indole] | 316 | 1580 |
| Cc1ccc2c(c1)[C@@H]1CN(C)CCC[C@H]1N2Cc1ccncc1 (relative stereo) [1.2.6(6), trans-2,9-dimethyl-6-(pyridin-4-ylmethyl)-1,2,3,4,5,5a,6,10b-octahydroazepino[4,3-b]indole] | 200 | 5010 |
| Cc1ccc2c(c1)[C@@H]1CN(C)CCC[C@H]1N2CCc1ccccc1 (relative stereo) [1.2.6(3), trans-2,9-dimethyl-6-phenethyl-1,2,3,4,5,5a,6,10b-octahydroazepino[4,3-b]indole] | 158 | 2000 |
| Cc1ccc2[nH]c3c(c2c1)CN(C)CCC3 [1.1.3.3(1), 2,9-dimethyl-1,2,3,4,5,6-hexahydroazepino[4,3-b]indole] | > 100000 | > 100000 |
| Cc1ccc2c(c1)[C@@H]1CN(C)CCC[C@H]1N2Cc1ccccn1 (relative stereo) [1.2.6(4), trans-2,9-dimethyl-6-(pyridin-2-ylmethyl)-1,2,3,4,5,5a,6,10b-octahydroazepino[4,3-b]indole] | 631 | 1580 |
| Cc1ccc2c(c1)[C@@H]1CN(C)CCC[C@H]1N2CCc1cccnc1 (relative stereo) [1.2.5(4), trans-2,9-dimethyl-6-[2-(pyridin-3-yl)ethyl]-1,2,3,4,5,5a,6,10b-octahydroazepino[4,3-b]indole] | 158 | 2510 |
| Cc1ccc2[nH]c3c(c2c1)CN(C(=O)Nc1ccccc1)CCC3 [1.1.3.5(1), 2-phenylcarbamoyl-9-methyl-1,2,3,4,5,6-hexahydroazepino[4,3-b]indole] | > 100000 | > 100000 |
| Cc1ccc2c(c1)c1c(n2CCc2ccncc2)CCCN(C)C1 [1.1.5(3), 2,9-dimethyl-6-[2-(pyridin-4-yl)ethyl]-1,2,3,4,5,6-hexahydroazepino[4,3-b]indole] | 200 | 1260 |
| Cc1ccc2c(c1)c1c(n2CCc2ccccn2)CCCN(C)C1 [1.1.5(1), 2,9-dimethyl-6-[2-(pyridin-2-yl)ethyl]-1,2,3,4,5,6-hexahydroazepino[4,3-b]indole] | 3160 | 3160 |
| Cc1ccc2c(c1)[C@@H]1CN(C)CCC[C@H]1N2Cc1ccc(C(=O)O)cc1 (relative stereo) [1.2.6(2), trans-4-(2,9-dimethyl-1,2,3,4,5,5a,10b-octahydroazepino[4,3-b]indol-6-ylmethyl)benzoic acid] | > 100000 | > 100000 |
| CC(=O)N1c2ccc(C)cc2[C@@H]2CN(C)CCC[C@H]21 (relative stereo) [1.2.7(4), trans-6-acetyl-2,9-dimethyl-1,2,3,4,5,5a,6,10b-octahydroazepino[4,3-b]indole] | > 100000 | > 100000 |
| Cc1ccc2c(c1)[C@@H]1CN(C)CCC[C@H]1N2Cc1cccnc1 (relative stereo) [1.2.6(5), trans-2,9-dimethyl-6-(pyridin-3-ylmethyl)-1,2,3,4,5,5a,6,10b-octahydroazepino[4,3-b]indole] | 100 | 1580 |
| Cc1ccc2[nH]c3c(c2c1)CN(S(=O)(=O)c1ccccc1)CCC3 [1.1.3.6(1), 2-phenylsulfonyl-9-methyl-1,2,3,4,5,6-hexahydroazepino[4,3-b]indole] | > 100000 | > 100000 |
